# Results: patent US9890126B2 (priority 2012, dated 2018)
# Marks after values point to notes of the source that are not given here.
# Molecular target: IspF (Burkholderia pseudomallei, UniProt Q3JRA0)
# Assay: biochemical
# Type: binding
# Settings: not given
# IspF, sequence (Q3JRA0 whole entry, looked up): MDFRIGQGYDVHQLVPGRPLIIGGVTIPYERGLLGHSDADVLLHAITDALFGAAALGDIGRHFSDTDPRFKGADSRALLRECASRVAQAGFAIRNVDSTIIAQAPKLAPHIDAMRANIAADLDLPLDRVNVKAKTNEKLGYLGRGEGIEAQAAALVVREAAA
row,Compound,Kd
1,Nc1ccn([C@@H]2O[C@H](CNC(=O)c3ccncc3)[C@@H](O)[C@H]2O)c(=O)n1 [HGN-0005],176 µM
2,Oc1ccc(-c2cncn2Cc2ccco2)cc1 [HGN-0019],380 µM
3,Oc1ccc(CCn2cncc2-c2ccc(O)cc2)cc1 [HGN-0048],486 µM

# Same assay, conditions: pH 7.4
row,Compound,Kd
1,NC(=O)c1c[nH]nc1NC(=O)c1c[nH]c2ncccc12 [HGN-0002],not soluble
2,O=C([O-])c1cnc(Nc2ccc(-c3ccncc3)cc2)nc1[O-].[Na+].[Na+] [HGN-0013],non-specific
3,CC(C)n1cncc1-c1ccc(O)cc1 [HGN-0018],no binding
4,Oc1ccc(-c2cncn2CCc2ccccc2)cc1 [HGN-0052],no binding
5,Oc1ccc(-n2ccnc2)cc1 [HGN-0056],no binding
6,OC(Cn1cnc(-c2ccccc2)c1-c1ccccc1)c1ccccc1 (stereo not shown) [HGN-0060],not soluble
7,Cn1ccnc1C(O)Cc1ccccc1 (stereo not shown) [HGN-0061],no binding
8,CC(c1ccccc1)C(O)c1nccn1-c1ccccc1 (stereo not shown) [HGN-0062],no binding

# Test system: Burkholderia
# Assay: not given
# Settings: cells printing symbol L
row,Compound,% Growth Inhibition Endpoint (24 h)
1,Oc1ccc(-c2cncn2Cc2cccc(Cl)c2)cc1 [HGN-0090],L^c
2,Oc1ccc(-c2cncn2Cc2ccccc2Cl)cc1 [HGN-0091],L^c
3,Oc1ccc(-c2cncn2Cc2ccc(Cl)cc2)cc1 [HGN-0094],L^c
4,Oc1ccc(-c2cncn2CCc2ccccc2Cl)cc1 [HGN-0096],L^c
5,Oc1ccc(-c2cncn2CCc2ccc(Cl)c(Cl)c2)cc1 [HGN-0100],L^c
6,Oc1ccc(-c2cncn2CCc2cccc(Cl)c2)cc1 [HGN-0108],L^c

# Same assay, conditions: concentration not given
row,Compound,inhibition against Burkholderia
1,Oc1ccc(-c2cncn2CCc2ccc(F)cc2)cc1 [HGN-0095],88.3%

# Same assay, conditions: relative to DMSO control; 0.00 = growth with inhibitor equal to or greater than DMSO control
Compound,% Growth Inhibition Endpoint (24 h),% Growth Inhibition Growth Curve
Oc1ccc(-c2cncn2CCc2c(Cl)cccc2Cl)cc1 [HGN0098],0.00^b %,
NC(=O)c1c[nH]nc1NC(=O)c1cncs1 [HGN-0004],0.00^b %,
Nc1ccn([C@@H]2O[C@H](CNC(=O)c3ccncc3)[C@@H](O)[C@H]2O)c(=O)n1 [HGN-0005],,0.00^b %
Nc1ccn([C@@H]2O[C@H](CNC(=O)c3cn4ccsc4n3)[C@@H](O)[C@H]2O)c(=O)n1 [HGN-0006],0.00^b %,
Nc1ccn([C@@H]2O[C@H](CNC(=O)c3ccnc4nc[nH]c34)[C@@H](O)[C@H]2O)c(=O)n1 [HGN-0007],0.00^b %,
Nc1ccn([C@@H]2O[C@H](CNC(=O)c3cscn3)[C@@H](O)[C@H]2O)c(=O)n1 [HGN-0008],0.00^b %,
NC(=O)c1c[nH]nc1NC(=O)Cc1cn2ccsc2n1 [HGN-0009],0.00^b %,
NC(=O)c1c[nH]nc1NC(=O)c1cnc2sccn12 [HGN-0010],7.22 ± 4.24%,
O=C([O-])c1cnc(Nc2ccc(-c3ccncc3)cc2)nc1[O-].[Na+].[Na+] [HGN-0013],,6.26 ± 1.00%
O=C([O-])c1cnc(Nc2ccc(Br)cc2)nc1[O-].[Na+].[Na+] [HGN-0014],15.52 ± 0.41%,
CCOC(=O)c1cnc(Nc2ccc(-c3ccncc3)cc2)[nH]c1=O [HGN-0015],,14.43 ± 2.38%
"CCOC(=O)c1cnc(NCC2CCCO2)[nH]c1=O (stereo not shown) [HGN-0017, ethyl 6-oxo-2-(((tetrahydrofuran-2-yl)methyl)amino)-1,6-dihydropyrimidine-5-carboxylate]",,0.00^b %
Oc1ccc(-c2cncn2CCc2ccccc2)cc1 [HGN-0022],0.00^b %,
Cn1cncc1C(O)c1ccccc1 (stereo not shown) [HGN-0031],,0.00^b %
"CCOC(=O)c1cnc(Nc2ccc(-c3ccccc3)cc2)[nH]c1=O [HGN-0033, ethyl 2-((1,1′-biphenyl)-4-ylamino)-6-oxo-1,6-dihydropyrimidine-5-carboxylate]",5.07 ± 2.01%,
"CCOC(=O)c1cnc(Nc2ccc(N3CCCCC3)cc2)[nH]c1=O [HGN-0034, ethyl 6-oxo-2-((4-(piperidin-1-yl)phenyl)amino)-1,6-dihydropyrimidine-5-carboxylate]",86.20 ± 0.16%,
O=C([O-])c1cnc(Nc2ccc(N3CCCCC3)cc2)nc1[O-].[Na+].[Na+] [HGN-0036],22.38 ± 21.24%,
"O=C([O-])c1cnc(Nc2cccc(-c3ccccc3)c2)nc1[O-].[Na+].[Na+] [HGN-0044, Sodium 2-([1,1′-biphenyl]-3-ylamino)-4-oxidopyrimidine-5-carboxylate]",1.48 ± 7.90%,
"CCOC(=O)c1cnc(NCc2ccco2)[nH]c1=O [HGN-0047, Ethyl 2-((furan-2-ylmethyl)amino)-6-oxo-1,6-diydropyrimidine-5-carboxylate]",0.00^b %,
O=C([O-])c1cnc(NCC2CCCO2)nc1[O-].[Na+].[Na+] (stereo not shown) [HGN-0050],32.99 ± 9.22%,
Oc1ccc(-c2cncn2Cc2ccc(Cl)c(Cl)c2)cc1 [HGN-0092],25.41 ± 2.79%,
Oc1ccc(-c2cncn2Cc2ccc(F)cc2)cc1 [HGN-0093],58.12 ± 2.17%,
Oc1ccc(-c2cncn2CCc2ccc(F)cc2)cc1 [HGN-0095],88.27 ± 0.48%,
Oc1ccc(-c2cncn2CCc2cccc(F)c2)cc1 [HGN-0097],4.27 ± 14.54%,
Oc1ccc(-c2cncn2CCc2ccc(Cl)cc2Cl)cc1 [HGN-0099],0.00^b %,
Nc1ccn([C@@H]2O[C@H](CNC(=O)Cc3cn4ccsc4n3)[C@@H](O)[C@H]2O)c(=O)n1 [HGN-0102],0.00^b %,
Oc1ccc(-c2cncn2Cc2ccccc2F)cc1 [HGN-0106],33.79 ± 16.09%,
Oc1ccc(-c2cncn2CCc2ccccc2F)cc1 [HGN-0107],2.75 ± 2.62%,

Compound,% Growth Inhibition Endpoint (24 h),% Growth Inhibition Growth Curve
Oc1ccc(-c2cncn2Cc2cccc(F)c2)cc1 [HGN-0109],24.77 ± 10.79%,
CCOC(=O)c1cnc(NCCc2ccc(F)cc2)[nH]c1=O [HGN-0111],31.31 ± 39.32%,
O=C([O-])c1cnc(NCCc2ccc(F)cc2)nc1[O-].[Na+].[Na+] [HGN-0112],19.82 ± 16.53%,
CCOC(=O)c1cnc(NCc2ccc(F)cc2)[nH]c1=O [HGN-0113],0.00^b %,
O=C([O-])c1cnc(NCc2ccc(F)cc2)nc1[O-].[Na+].[Na+] [HGN-0114],5.94 ± 5.46%,
CCOC(=O)c1cnc(NCCc2cccc(F)c2)[nH]c1=O [HGN-0115],0.00^b %,
O=C([O-])c1cnc(NCCc2cccc(F)c2)nc1[O-].[Na+].[Na+] [HGN-0116],20.46 ± 3.47%,
CCOC(=O)c1cnc(NCCc2ccc(Cl)cc2Cl)[nH]c1=O [HGN-0117],0.00^b %,
CCOC(=O)c1cnc(NCCc2ccccc2Cl)[nH]c1=O [HGN-0119],0.00^b %,
O=C([O-])c1cnc(NCCc2ccccc2Cl)nc1[O-].[Na+].[Na+] [HGN-0120],80.30 ± 0.40%,
CCOC(=O)c1cnc(NCc2ccccc2Cl)[nH]c1=O [HGN-0121],0.00^b %,
O=C([O-])c1cnc(NCc2ccccc2Cl)nc1[O-].[Na+].[Na+] [HGN-0122],23.02 ± 8.79%,
CCOC(=O)c1cnc(NCc2cccc(Cl)c2)[nH]c1=O [HGN-0123],0.00^b %,
O=C([O-])c1cnc(NCc2cccc(Cl)c2)nc1[O-].[Na+].[Na+] [HGN-0124],30.67 ± 2.67%,
CCOC(=O)c1cnc(NCc2ccc(Cl)cc2)[nH]c1=O [HGN-0125],23.89 ± 36.14%,
O=C([O-])c1cnc(NCc2ccc(Cl)cc2)nc1[O-].[Na+].[Na+] [HGN-0126],34.34 ± 3.24%,
CCOC(=O)c1cnc(NCc2cc(Cl)ccc2Cl)[nH]c1=O [HGN-0127],3.47 ± 2.20%,
O=C([O-])c1cnc(NCc2cc(Cl)ccc2Cl)nc1[O-].[Na+].[Na+] [HGN-0128],37.46 ± 0.21%,
CCOC(=O)c1cnc(NCc2ccc(Cl)c(Cl)c2)[nH]c1=O [HGN-0129],64.42 ± 2.77%,
O=C([O-])c1cnc(NCc2ccc(Cl)c(Cl)c2)nc1[O-].[Na+].[Na+] [HGN-0130],45.59 ± 2.35%,
CCOC(=O)c1cnc(NCCc2ccc(Cl)c(Cl)c2)[nH]c1=O [HGN-0131],0.00^b %,
O=C([O-])c1cnc(NCCc2ccc(Cl)c(Cl)c2)nc1[O-].[Na+].[Na+] [HGN-0132],72.24 ± 11.83%,
CCOC(=O)c1cnc(NCc2ccccc2F)[nH]c1=O [HGN-0133],0.00^b %,
O=C([O-])c1cnc(NCc2ccccc2F)nc1[O-].[Na+].[Na+] [HGN-0134],26.05 ± 6.37%,
CCOC(=O)c1cnc(NCCc2c(Cl)cccc2Cl)[nH]c1=O [HGN-0135],0.00^b %,
O=C([O-])c1cnc(NCCc2c(Cl)cccc2Cl)nc1[O-].[Na+].[Na+] [HGN-0136],16.71 ± 5.04%,
COc1cc(-c2cncn2CCc2c[nH]c3ccccc23)ccc1O [HGN-0137],0.00^b %,
